pEC50, pIC50: −log10 of the molar value. Read-outs that look alike come from different tables or passages of the source.

In series [1] the target is T1, HCV NS3/4A protease complex, BMS strain (UniProt P27958, species not given/STRAIN_BMS).
T1 construct: said of H77 and J4L6S; fused on or other part: A three-lysine solubilising tail at the C-terminus of NS4A and a His tag (pET21b, Ni-NTA purification)
Put plainly: FRET peptide assay to monitor HCV NS3/4A proteolytic activity (BMS strain). The series is classed as biochemical, Hepatitis C virus (genotype 1a). The settings on record: NS3/4A BMS strain; read-out: IC50 Range. The text has this: HCV NS3 protease complexes, derived from the BMS strain, H77 strain or J4L6S strain, were generated, as described below. These purified recombinant proteins were generated for use in a homogeneous assay (see below) to provide an indication of how effective compounds of the present disclosure would be in inhibiting HCV NS3 proteolytic activity.
Serum from an HCV-infected patient was obtained from Dr. T. Wright, San Francisco Hospital. An engineered full-length cDNA (compliment deoxyribonucleic acid) template of the HCV genome (BMS strain) was constructed from DNA fragments obtained by reverse transcription-PCR (RT-PCR) of serum RNA (ribonucleic acid) and using primers selected on the basis of homology between other genotype 1a strains. From the determination of the entire genome sequence, a genotype 1a was assigned to the HCV isolate according to the classification of Simmonds et al. (See P Simmonds, K A Rose, S Graham, S W Chan, F McOmish, B C Dow, E A Follett, P L Yap and H Marsden, J. Clin. Microbiol., 31(6), 1493-1503 (1993)). […] The infectious clones, H77 (1a genotype) and J4L6S (1b genotype) were obtained from R. Purcell (NIH) and the sequences are published in Genbank (AAB67036, see Yanagi, M., Purcell, R. H., Emerson, S. U. and Bukh, J. Proc. Natl. Acad. Sci. U.S.A. 94(16), 8738-8743 (1997); AF054247, see Yanagi, M., St Claire, M., Shapiro, M., Emerson, S. U., Purcell, R. H. and Bukh, J, Virology 244 (1), 161-172. (1998)).
The H77 and J4L6S strains were used for production of recombinant NS3/4A protease complexes. DNA encoding the recombinant HCV NS3/4A protease complex (amino acids 1027 to 1711) for these strains were manipulated as described by P. Gallinari et al. (see Gallinari P, Paolini C, Brennan D, Nardi C, Steinkuhler C, De Francesco R. Biochemistry. 38(17):5620-32, (1999)). Briefly, a three-lysine solubilizing tail was added at the 3′-end of the NS4A coding region. The cysteine in the P1 position of the NS4A-NS4B cleavage site (amino acid 1711) was changed to a glycine to avoid the proteolytic cleavage of the lysine tag. Furthermore, a cysteine to serine mutation was introduced by PCR at amino acid position 1454 to prevent the autolytic cleavage in the NS3 helicase domain. The variant DNA fragment was cloned in the pET21b bacterial expression vector (Novagen) and the NS3/4A complex was expressed in Escherichia coli strain BL21 (DE3) (Invitrogen) following the protocol described by P. Gallinari et al. (see Gallinari P, Brennan D, Nardi C, Brunetti M, Tomei L, Steinkuhler C, De Francesco R., J Virol. 72(8):6758-69 (1998)) with modifications. Briefly, the NS3/4A protease complex expression was induced with 0.5 mM Isopropyl β-D-1-thiogalactopyranoside (IPTG) for 22 hours (h) at 20° C. A typical fermentation (1 Liter (L)) yielded approximately 10 grams (g) of wet cell paste. The cells were resuspended in lysis buffer (10 mL/g) consisting of 25 mM N-(2-Hydroxyethyl)Piperazine-N′-(2-Ethane Sulfonic acid) (HEPES), pH 7.5, 20% glycerol, 500 mM Sodium Chloride (NaCl), 0.5% Triton X-100, 1 microgram/milliliter (“μg/mL”) lysozyme, 5 mM Magnesium Chloride (MgCl2), 1 μg/ml Dnasel, 5 mM β-Mercaptoethanol (βME), Protease inhibitor-Ethylenediamine Tetraacetic acid (EDTA) free (Roche), homogenized and incubated for 20 minutes (min) at 4° C. The homogenate was sonicated and clarified by ultra-centrifugation at 235000 g for 1 h at 4° C. Imidazole was added to the supernatant to a final concentration of 15 mM and the pH adjusted to 8.0. The crude protein extract was loaded on a Nickel-Nitrilotriacetic acid (Ni-NTA) column pre-equilibrated with buffer B (25 mM HEPES, pH 8.0, 20% glycerol, 500 mM NaCl, 0.5% Triton X-100, 15 mM imidazole, 5 mM βME). The sample was loaded at a flow rate of 1 mL/min. The column was washed with 15 column volumes of buffer C (same as buffer B except with 0.2% Triton X-100). The protein was eluted with 5 column volumes of buffer D (same as buffer C except with 200 mM Imidazole). […]

The subject of series [2] is HCV replicon in HUH-7 cells. Description: HCV replicon FRET assay. The settings on record: Hepatitis C virus. The series is classed as cell-based, Hepatitis C virus (strain 1b). The text has this:
An HCV replicon whole cell system was established as described by Lohmann V, Komer F, Koch J, Herian U, Theilmann L, Bartenschlager R., Science 285(5424):110-3 (1999). This system enabled us to evaluate the effects of our HCV Protease compounds on HCV RNA replication. Briefly, using the HCV strain 1b sequence described in the Lohmann paper (Assession number: AJ238799), an HCV cDNA was synthesized by Operon Technologies, Inc. (Alameda, Calif.), and the full-length replicon was then assembled in plasmid pGem9zf(+) (Promega, Madison, Wis.) using standard molecular biology techniques. The replicon consists of (i) the HCV 5′ UTR fused to the first 12 amino acids of the capsid protein, (ii) the neomycin phosphotransferase gene (neo), (iii) the IRES from encephalomyocarditis virus (EMCV), and (iv) HCV NS3 to NS5B genes and the HCV 3′ UTR. Plasmid DNAs were linearized with Scal and RNA transcripts were synthesized in vitro using the T7 MegaScript transcription kit (Ambion, Austin, Tex.) according to manufacturer's directions. In vitro transcripts of the cDNA were transfected into the human hepatoma cell line, HUH-7. […] Resulting cell lines were characterized for positive and negative strand RNA production and protein production over time.
The HCV replicon FRET assay was developed to monitor the inhibitory effects of compounds described in the disclosure on HCV viral replication. HUH-7 cells, constitutively expressing the HCV replicon, were grown in Dulbecco's Modified Eagle Media (DMEM) (Gibco-BRL) containing 10% Fetal calf serum (FCS) (Sigma) and 1 mg/ml G418 (Gibco-BRL). Cells were seeded the night before (1.5×10^4 cells/well) in 96-well tissue-culture sterile plates. Compound and no compound controls were prepared in DMEM containing 4% FCS, 1:100 Penicillin/Streptomysin (Gibco-BRL), 1:100 L-glutamine and 5% DMSO in the dilution plate (0.5% DMSO final concentration in the assay). Compound/DMSO mixes were added to the cells and incubated for 4 days at 37° C. After 4 days, cells were first assessed for cytotoxicity using alamar Blue (Trek Diagnotstic Systems) for a CC50 reading. The toxicity of compound (CC50) was determined by adding 1/10th volume of alamar Blue to the media incubating the cells. After 4 hours, the fluorescence signal from each well was read, with an excitation wavelength at 530 nm and an emission wavelength of 580 nm, using the Cytofluor Series 4000 (Perspective Biosystems). Plates were then rinsed thoroughly with Phosphate-Buffered Saline (PBS) (3 times 150 μl). The cells were lysed with 25 μl of a lysis assay reagent containing an HCV protease substrate (5× cell Luciferase cell culture lysis reagent (Promega #E153A) diluted to 1× with distilled water, NaCl added to 150 mM final, the FRET peptide substrate (as described for the enzyme assay above) diluted to 10 μM final from a 2 mM stock in 100% DMSO. […]. The plate was then placed into the Cytofluor 4000 instrument which had been set to 340 nm excitation/490 nm emission, automatic mode for 21 cycles and the plate read in a kinetic mode. EC50 determinations were carried out as described for the IC50 determinations.
Background: In antiviral work, replicon cells carry a viral genome segment that copies itself.

Where [3] appears, read: Huh-7, HCV replicon, for compounds tested, read-out: EC50 Range.

T1 sequence (P27958 1027-1657, change not shown, one chain of several): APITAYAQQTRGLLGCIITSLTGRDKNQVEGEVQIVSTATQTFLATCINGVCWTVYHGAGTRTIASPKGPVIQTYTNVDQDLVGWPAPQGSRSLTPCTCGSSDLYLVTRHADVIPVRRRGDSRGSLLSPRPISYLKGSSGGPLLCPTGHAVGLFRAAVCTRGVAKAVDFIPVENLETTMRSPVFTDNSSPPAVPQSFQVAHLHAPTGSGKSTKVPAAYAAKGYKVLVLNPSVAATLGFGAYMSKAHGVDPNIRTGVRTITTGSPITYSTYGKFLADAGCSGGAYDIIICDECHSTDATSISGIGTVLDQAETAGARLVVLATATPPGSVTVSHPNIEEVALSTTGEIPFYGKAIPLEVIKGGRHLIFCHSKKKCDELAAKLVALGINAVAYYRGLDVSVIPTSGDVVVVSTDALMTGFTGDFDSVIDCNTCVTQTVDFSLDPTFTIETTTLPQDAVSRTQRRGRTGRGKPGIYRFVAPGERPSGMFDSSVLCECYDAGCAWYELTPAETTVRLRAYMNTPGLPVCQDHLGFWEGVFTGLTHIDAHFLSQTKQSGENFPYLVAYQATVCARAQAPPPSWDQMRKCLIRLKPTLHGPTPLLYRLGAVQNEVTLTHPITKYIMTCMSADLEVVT

`CC(C)(C)OC(=O)N[C@H]1CCCCC/C=C\[C@@H]2C[C@@]2(C(=O)NS(=O)(=O)C2CC2)NC(=O)[C@@H]2C[C@@H](OC(=O)c3cccc(C#N)c3)CN2C1=O` [Compound 33, 18-(3-cyanobenzoyloxy)-14-tert-butoxycarbonylamino-4-cyclopropylsulfonylaminocarbonyl-2,15-dioxo-3,16-diazatricyclo-[14.3.0.0^4,6]-nonadec-7-ene]: the melting point lay within 151 to 153 °C. Besides, in series [1], the pIC50 is more than 7.00. Further, in series [2] (setting [3]), the pEC50 was 6.00 to 7.00.
For `COC(=O)c1ccc(C(=O)O[C@@H]2C[C@H]3C(=O)N[C@]4(C(=O)NS(=O)(=O)C5CC5)C[C@H]4/C=C\CCCCC[C@H](NC(=O)OC(C)(C)C)C(=O)N3C2)cc1` [Compound 31], in that order: 154 to 156 °C, more than 7.00 and more than 7.00.
Molecule `CC(C)(C)OC(=O)N[C@H]1CCCCC/C=C\[C@@H]2C[C@@]2(C(=O)NS(=O)(=O)C2CC2)NC(=O)[C@@H]2C[C@@H](OC(=O)c3ccc(Cl)cc3)CN2C1=O` [Compound 21, 18-(4-chlorobenzoyloxy)-14-tert-butoxycarbonylamino-4-cyclopropylsulfonylaminocarbonyl-2,15-dioxo-3,16-diazatricyclo-[14.3.0.0^4,6]-nonadec-7-ene] showed a melting point of 143 to 145 °C. For the same molecule, the pIC50 in series [1] is more than 7.00. The negative logarithm of the EC50 (pEC50) in series [2] (setting [3]) is more than 7.00.
As to `CC(C)(C)OC(=O)N[C@H]1CCCOC/C=C\[C@@H]2C[C@@]2(C(=O)NS(=O)(=O)C2CC2)NC(=O)[C@@H]2C[C@@H](OC(=O)NCC3CCCCC3)CN2C1=O` [Compound 37, 18-cyclohexylmethylaminocarbonyloxyl-14-tert-butoxycarbonylamino-4-cyclopropylsulfonylaminocarbonyl-2,15-dioxo-3,16-diaza-10-oxatricyclo-[14.3.0.0^4,6]-nonadec-7-ene], the melting point was in the range of 142 to 144 °C. Also, the pIC50 in series [1] is 6.00 to 7.00. Besides, in series [2] (setting [3]), the pEC50 was less than 6.00.
The molecule `COC(=O)c1ccccc1NC(=O)O[C@@H]1C[C@H]2C(=O)N[C@]3(C(=O)NS(=O)(=O)C4CC4)C[C@H]3/C=C\COCCC[C@H](NC(=O)OC(C)(C)C)C(=O)N2C1` [Compound 38, 18-(2-carbomethoxyphenylaminocarbonyloxy)-14-tert-butoxycarbonylamino-4-cyclopropylsulfonylaminocarbonyl-2,15-dioxo-3,16-diaza-10-oxatricyclo-[14.3.0.0^4,6]-nonadec-7-ene] returned a melting point of 147 to 149 °C. Also, the pIC50 in series [1] was more than 7.00. Moreover, the pEC50 in series [2] (Huh-7, read-out: EC50 Range) was 6.00 to 7.00.
In turn, `CC(C)(C)OC(=O)N[C@H]1COCCC/C=C\[C@@H]2C[C@@]2(C(=O)NS(=O)(=O)C2CC2)NC(=O)[C@@H]2C[C@@H](OC(=O)c3ccc(Oc4ccccc4)cc3)CN2C1=O` [Compound 14, 18-(4-phenoxybenzoyloxy)-14-tert-butoxycarbonylamino-4-cyclopropylsulfonylaminocarbonyl-2,15-dioxo-3,16-diaza-12-oxatricyclo-[14.3.0.0^4,6]-nonadec-7-ene] yielded a melting point of 207 to 209 °C. For the same molecule, the pIC50 in series [1] is 6.00 to 7.00. Besides, in series [2] (setting [3]), the pEC50 is 6.00 to 7.00.
As for `CC(C)(C)OC(=O)N[C@H]1COCCC/C=C\[C@@H]2C[C@@]2(C(=O)NS(=O)(=O)C2CC2)NC(=O)[C@@H]2C[C@@H](OC(=O)Nc3ccc(Oc4ccccc4)cc3)CN2C1=O` [Compound 41, 18-(4-phenoxyphenylaminocabonyloxy)-14-tert-butoxycarbonylamino-4-cyclopropylsulfonylaminocarbonyl-2,15-dioxo-3,16-diaza-12-oxatricyclo-[14.3.0.0^4,6]-nonadec-7-ene], the melting point was in the range of 163 to 165 °C. Moreover, in series [1], the pIC50 was less than 6.00. Besides, the pEC50 in series [2] (setting [3]) is less than 6.00.
Regarding `CC(C)(C)OC(=O)N[C@H]1CCCCC/C=C\[C@@H]2C[C@@]2(C(=O)NS(=O)(=O)C2CC2)NC(=O)[C@@H]2C[C@@H](OC(=O)c3ccc(-c4ccccc4)cc3)CN2C1=O` [Compound 19, 18-(4-biphenylcarbonyloxy)-14-tert-butoxycarbonylamino-4-cyclopropylsulfonylaminocarbonyl-2,15-dioxo-3,16-diazatricyclo-[14.3.0.0^4,6]-nonadec-7-ene], the melting point lay in the range of 162 to 164 °C. Moreover, in series [1], the pIC50 was more than 7.00. Moreover, the pEC50 in series [2] (setting [3]) is more than 7.00.

As a reminder, the pIC50 is −log10 of the IC50, conventionally taken in molar units. The term pEC50 denotes the negative decadic logarithm of the EC50, by convention in mol/L. What is called melting point is the temperature, or range, at which the solid turns liquid.

Values taken from patent US7772183B2 (Bristol-Myers Squibb Company, priority 2005, dated 2010).
